# According to patent US20220040109A1, “KIDNEY-TARGETING DRUG DELIVERY CARRIER” (KYOTO PHARMACEUTICAL UNIVERSITY, priority 2017, published 2022):
# Assay: Toxicity in mouse (plasma creatinine, BUN, kidney histology)
# Format: in vivo, ddY mice
# Conditions: compound 1a 1 mg/kg intravenous once per day for 5 days
# Method: Six days after the first intravenous injection, under isoflurane anesthesia, the blood was collected from the vena cava to sacrifice the mice. Plasma creatinine and urea nitrogen (BUN) levels were respectively measured using a creatinine measurement kit (LabAssay, Wako) and a BUN measurement kit (DIUR-100, BioAssay System). Thereafter, kidneys were excised, fixed with 4% paraformaldehyde, and embedded in paraffin blocks. Then, 5-μm-thick sections were prepared. The kidney sections were stained with hematoxylin and eosin, and renal injury was evaluated using a light microscopy (Biozero, KEYENCE). In addition, when HgCl2 was administered as a positive control, plasma creatinine, BUN level and kidney sections were also evaluated by the above-mentioned methods.
smiles,measurement,setting,value
[Cl][Hg][Cl] [HgCl2],histological sections of renal tissues (hematoxylin and eosin),"HgCl2 positive control, FIG. 10C",infiltration and necrosis of inflammatory cells and damaged cells were observed
same,plasma concentration of creatinine,"HgCl2 subcutaneous positive control, FIG. 10A",significantly increased
same,plasma concentration of BUN,"HgCl2 subcutaneous positive control, FIG. 10B",significantly increased
